Assay results taken from US20240424083A1 (priority 2023, published 2024).
Peptide text beside a SMILES is read from it. * marks the point of attachment. Cbz = O=C(OCc1ccccc1)*; CH2F = FC*

Tests used:
Type in all cases: cell-based, mouse
2′5′-OAS/RNaseL system = conditions: N15m1-infected BMDMs, 18 hpi; zVAD 20 μM, C16 1 μM
Protocol: Bioanalyzer RNA analysis. Equal amounts of total RNA purified from BMDMs were analyzed on an Agilent 2100 Bioanalyzer using RNA Nano LabChips.

BMDMs [1] = system: BMDMs
BMDMs [2] = conditions: N15m1-infected BMDMs, 24 hpi; zVAD 20 μM, Nec-1 25 μM, VX-765 20 μM
Protocol: Cell death assays. Cell viability and Caspase 3/7 activity were measured using CellTiter Glo (G7571, Promega) or CaspaseGlo 3/7 (G8091, Promega) respectively, according to the manufacturer's protocol, with modification.
Cell death assays. Cell viability and Caspase 3/7 activity were measured using CellTiter Glo (G7571, Promega) or CaspaseGlo 3/7 (G8091, Promega) respectively, according to the manufacturer's protocol, with modification. Briefly, 3.0×10^5 BMDMs/well wereplated in 24-well plates and infected at an MOI of 0.1 for 1 h in serum-free media. Media was replaced with complete media, or for addition of chemical inhibitors, viral inoculum was replaced with completed BMM media containing indicated concentration of inhibitors. Infected BMDMs were incubated for 24 h at 37° C./5% CO2. BMDMs were washed twice with 1×PBS and lysed with 100 μL Glo reagent/medium mixture (1:1). 50 μL of cell lysate was used for measuring the luminescence signal. Standard deviation and unpaired t test were performed on technical triplicates and data are representative of three independent experiments.

COC(=O)C[C@H](NC(=O)[C@H](C)NC(=O)[C@@H](NC(=O)OCc1ccccc1)C(C)C)C(=O)CF [zVAD] (Cbz-Val-Ala-Asp(OMe)-CH2F)
effect of inhibitor on degradation of host rRNA (2′5′-OAS/RNaseL system): not inhibited | effect of inhibitor on caspase 3/7 activity in N15m1-infected BMDMs (BMDMs [1]): inhibited | effect of inhibitor on virus-induced cell death (BMDMs [2]): prevented virus-induced cell death
